{"source": "patent US12559629B2", "about": "“Method for preparing a stable Trypan Blue solution” (BECKMAN COULTER, INC., priority 2020, dated 2026)", "key": {"[1]": {"assay": "Preliminary experiments: salt-induced precipitation/aggregation of 0.2% w/v aqueous Trypan Blue", "assay_type": "physicochemical"}, "[2]": {"assay": "Dye precipitation on mixing Nominal 0.4% Trypan Blue in NaCl with polycationic compounds", "assay_type": "physicochemical", "conditions": "Nominal 0.4% Trypan Blue in NaCl (0.20 mL) mixed with 0.5 mg mL^−1 compound in PBS (0.20 mL)", "excerpt": "In the present study, Trypan Blue was mixed with various cell culture medium containing polycationic compounds. Nominal 0.4% Trypan Blue in NaCl was mixed with PBS (negative control), kanamycin (a positively charged aminoglycoside), and spermidine (a positively charged polyamine). […] This effect can be reasonably generalized to other polycationic compounds, particularly those containing amine functional groups."}, "[3]": {"conditions": "cited from earlier work"}}, "note": "Like-named read-outs stand apart in the source and are kept apart here.", "data": [{"smiles": "[Cl-].[Cs+]", "note": "[cesium chloride]", "values": [{"measurement": "Dye aggregation of Trypan Blue in presence of salt", "setting": "[1]; 150 mM concentrations", "result": "produced dye aggregation"}]}, {"smiles": "[Cl-].[Li+]", "note": "[lithium chloride]", "values": [{"measurement": "Dye aggregation of Trypan Blue in presence of salt", "setting": "[1]; concentrations as high as 600 mM", "result": "did not promote dye aggregation"}]}, {"smiles": "NCCCCNCCCN", "note": "[spermidine]", "values": [{"measurement": "Precipitation of Trypan Blue", "setting": "[2]", "result": "trigger immediate precipitation of Trypan Blue"}]}, {"smiles": "[Cl-].[Na+]", "note": "[sodium chloride]", "values": [{"measurement": "Precipitation of 0.2% w/v Trypan Blue", "setting": "[1]; 150 mM salt, storage for 16 hours at 4° C.", "result": "exhibited precipitation"}, {"measurement": "Precipitation of the dye from 0.2% w/v aqueous solution of Trypan Blue", "setting": "[1]; addition of 250 mM salt", "result": "rapid precipitation of the dye"}]}, {"smiles": "O=P([O-])(O)O.[Na+]", "note": "[monosodium phosphate]", "values": [{"measurement": "Dye aggregation of Trypan Blue in presence of salt", "setting": "[1]; 150 mM sodium concentrations", "result": "promoted dye aggregation"}]}, {"smiles": "Cc1cc(-c2ccc(/N=N/c3c(S(=O)(=O)O)cc4cc(S(=O)(=O)O)cc(N)c4c3O)c(C)c2)ccc1/N=N/c1c(S(=O)(=O)O)cc2cc(S(=O)(=O)O)cc(N)c2c1O", "note": "[Trypan Blue]", "values": [{"measurement": "Formation of red colored dye aggregates", "setting": "[1]; 0.2% w/v in deionized water, two weeks at 4° C.", "result": "did not form red colored dye aggregates"}]}, {"smiles": "Cc1cc(-c2ccc(/N=N/c3ccc4c(S(=O)(=O)O)cc(S(=O)(=O)O)c(N)c4c3O)c(C)c2)ccc1/N=N/c1ccc2c(S(=O)(=O)O)cc(S(=O)(=O)O)c(N)c2c1O", "note": "[Evans Blue]", "values": [{"measurement": "Solubility of precipitate with neomycin", "setting": "[3]; pH 8.5", "result": "insoluble"}, {"measurement": "Solubility of precipitate with neomycin", "setting": "[3]; pH 10.4", "result": "dissolves"}]}, {"smiles": "[Cl-].[K+]", "note": "[potassium chloride]", "values": [{"measurement": "Dye aggregation of Trypan Blue in presence of salt", "setting": "[1]; 150 mM concentrations", "result": "produced dye aggregation"}]}, {"smiles": "O=S([O-])[O-].[Na+].[Na+]", "note": "[sodium sulfite]", "values": [{"measurement": "Dye aggregation of Trypan Blue in presence of salt", "setting": "[1]; 150 mM sodium concentrations", "result": "promoted dye aggregation"}]}]}
